How the values were obtained:
human LBP = target: T1, human LBP (Homo sapiens, UniProt P18428); test: LPS-binding protein (LBP)/LPS interaction assay (Endoblock LBP ELISA); conditions: Polymyxin-B 100 μM
T1 construct: purchased Hycult Biotech
T1 sequence (P18428 26-481): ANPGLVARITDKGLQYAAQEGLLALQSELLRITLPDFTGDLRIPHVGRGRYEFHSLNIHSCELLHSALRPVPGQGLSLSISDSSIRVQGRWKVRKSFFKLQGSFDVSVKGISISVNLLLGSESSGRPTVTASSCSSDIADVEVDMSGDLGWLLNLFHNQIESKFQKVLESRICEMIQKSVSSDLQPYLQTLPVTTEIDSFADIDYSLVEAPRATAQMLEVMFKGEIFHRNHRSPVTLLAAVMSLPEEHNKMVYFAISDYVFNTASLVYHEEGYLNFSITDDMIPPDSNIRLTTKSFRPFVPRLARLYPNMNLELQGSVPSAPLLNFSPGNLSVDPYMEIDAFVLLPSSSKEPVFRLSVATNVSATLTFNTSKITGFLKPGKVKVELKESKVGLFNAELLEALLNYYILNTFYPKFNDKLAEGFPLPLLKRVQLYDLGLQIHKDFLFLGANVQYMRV
Description: The Endoblock LBP ELISA test kit (Hycult Biotech, PA, USA) was used according to the manufacturer's instructions to investigate whether Fh12 disrupts the interaction between LPS and LBP. Briefly, binding of biotinylated LPS to pre-captured human LBP was assessed using streptavidin peroxidase, followed by addition of tetramethylbenzidine. Fh12 (0.05-10 μg/ml) was pre-incubated for 30 min with biotinylated-LPS and added to wells pre-coated with anti-LBP+LBP. PMB (0.2-100 μM), which competes with LBP for binding to LPS, was used as a control for inhibition by pre-incubation with biotinylated-LPS.
To investigate the mechanism through which Fh12 specifically blocks the interaction between LPS and TLR4, we firstly assessed whether Fh12 exposure alters either the interaction of LPS with […] (LBP), or the expression of any TLR4 complex component. To assess whether Fh12 prevents binding of LPS to LBP, we used an LBP-ELISA kit, which detects binding of biotinylated LPS to LBP. PMB, which competes with LBP for binding to LPS, was used as a positive control. A lipid-binding protein assay (Endoblock) was used to investigate whether Fh12 disrupts the interaction between LPS and LBP. Polymyxin-B (100 μM), which is known to compete with LBP for binding to LPS, blocked LBP/LPS binding.

TLR4 = test: NF-κB activation in TLR4-transfected HEK cells (SEAP, A655); format: cell-based, human; conditions: PMB 100 μM; LPS 5 μg/ml
Description: To investigate the mechanism of interaction between Fh12 and TLR4 we used Human Embryonic Kidney 293 cells (HEK293, InvivoGen). These cells (HEK293-TLR4) are co-transfected with genes encoding cluster differentiation antigen-14 (CD14), myeloid differentiation protein-2 (MD2), toll-like receptor-4 (TLR4) co-receptor, and a SEAP reporter gene (HEK293-TLR4). Cells were maintained in DMEM supplemented with 4.5 g/L glucose, 10% fetal bovine serum (FBS), 50 U/ml penicillin, 50 μg/ml streptomycin, 100 μg/ml Normocin™ and 2 mM L-glutamine. For all experiments a cell suspension was prepared using HEK-Blue™ Detection medium at 14×10^4 cells/ml. For stimulation experiments, cells were seeded at 2.52×10^4 cells/well in 96-well flat-bottom plates and treated with Fh12 (from 0.62 to 10 μg/ml) or LPS (5 μg/ml), and incubated at 37° C., 5% CO2 for 24 h. In the inhibition experiments, cells were cultured with Fh12 (0.6 to 10 μg/ml) 30 min prior LPS (5 μg/ml) stimulation. […] All readings were done at 655 nm after 24 h of LPS-stimulation. […] The percent of reduction (R %) of the absorbance values was calculated by the formula R (%)=100−[(A−C)×100)/(B−C)], where A is the mean A655 of three replicates obtained when cells were stimulated with Fh12, and B is the mean A665 value obtained when cells were exposed to LPS, and C is the mean A655 of three replicates obtained when cells were stimulated with PBS. […]

polymyxin-B [PMB]
LBP/LPS binding, positive control (human LBP): blocked
NF-κB expression, antagonist control (TLR4): completely suppressed

Reference: patent US10376561B1, “Fasciola hepatica fatty acid binding protein a novel anti-inflammatory molecule” (priority 2015, dated 2019)
